Reference: patent publication US20130324526A1, “[1,2,4] TRIAZOLO [4,3-B] PYRIDAZINE COMPOUNDS AS INHIBITORS OF THE C-MET TYROSINE KINASE” (NOVARTIS AG, priority 2011, published 2013)

Tests used:
GTL16 cells = assay: GTL16 cell viability assay (CellTiter Glo); type: cell-based; conditions: Homo sapiens, GTL 16, GTL16 gastric cancer cells, 24 hours, triplicates, read-out: GTL-16 Proliferation IC50
Protocol: GTL16 cell line is derived from a gastric cancer patient. GTL16 expresses high level of c-Met receptor tyrosine kinase due to the gene amplification.
GTL16 cells were seeded in DMEM medium with 10% FBS and 1% Pene. & Strep. at 5000 cells/well/90 μL in 96 well plate and incubated overnight for attachment at 37° C. in 5% CO2 incubator. 10-fold serials dilutions of compounds were added to the cell as 10 μL/well. The final assay volume was 100 μl/well. The assay plates were incubated at 37° C. in 5% CO2 incubator for 24 hours. […] Briefly, the plates were cooled at room temperature for 10 mins and 100 μl of CellTiter Glo reagent was added into each well. Plates were shaken for 10 mins. The chemiluminescent light unit was read in Envision from Perkin Elmer. All the tests were run at triplicates. The IC50 was calculated using Spotfire software.

[1] = molecular target: c-MET receptor tyrosine kinase, GST-c-MET(969-1390) (Homo sapiens, UniProt P08581); assay: EPK c-MET profiling assay (LanthaScreen TR-FRET kinase assay); type: biochemical; conditions: 2 μM ATP, 0.3 nM enzyme, 60 minutes at room temperature; end point measurement, repeats can be about two times higher or lower; read-out: c-Met Biochem IC50
Protocol: The exemplified compounds of the present invention were assayed in an antibody based kinase phosphorylation assay as follows.
EPK c-MET Profiling Assay:
The EPK kinase assay for c-MET receptor tyrosine kinase was developed, using the purified recombinant GST-fusion protein, containing the cytoplasmic domain of the enzyme. GST-c-MET(969-1390) was purified by affinity chromatography.
The kinase assay is based on the LanthaScreen™ technology. LanthaScreen™ is the detection of Time-Resolved Fluorescence Resonance Energy Transfer (TR-FRET) using lanthanide chelates to measure interactions between various binding partners. In a TR-FRET kinase assay, a long-lifetime lanthanide donor species is conjugated to an antibody that specifically binds to a phosphorylated product of a kinase reaction that is labeled with a suitable acceptor fluorophore. This antibody-mediated interaction brings the lanthanide donor and the acceptor into proximity such that resonance energy transfer can take place, resulting in a detectable increase in the FRET signal.
The kinase reactions were performed in 384 well microtiter plates in a total reaction volume of 10.05 μL. The assay plates were prepared with 0.05 μL per well of test compound in the appropriate test concentration, as described under “preparation of compound dilutions”. The reactions were started by combining 5 μL of ATP solution with 5 μL of enzyme-substrate mix (consisting of kinase and substrate). The final concentrations in the kinase reactions were 25 mM Tris/HCl, 1 mM DTT, 0.025% Tween20, 10 μM sodium orthovanadate, 0.25% BSA, 0.5% DMSO, 10 mM MgCl2, 3 mM MnCl2, 2 μM ATP, 50 nM Fluorescein-PolyEAY, and 0.3 nM enzyme. The reactions were incubated for 60 minutes at room temperature and stopped by adding 5 μL of stop buffer (50 mM EDTA, 0.04% NP40, 20 mM Tris/HCl). Subsequently 5 μL of detection mix (50 mM Tris/HCl, 2 mM DTT, 0.05% Tween20, 20 μM sodium orthovanadate, 1% BSA, 1 nM Tb-PY20 antibody) were added to the stopped reactions. After 45 minutes incubation in dark at room temperature, the plates were measured in a Perkinelmer Envision fluorescence reader. The effect of compound on the enzymatic activity was in all assays obtained from the linear progress curves and normally determined from one reading (end point measurement).
These endpoint results should therefore only be seen as an indicator for the activity range, since repeated measurements can result in about two times higher or lower values.

human platelet PDE3 = molecular target: T1, human platelet PDE3 (Homo sapiens, UniProt Q14432); assay: hPDE3 assay ([3H]cAMP scintillation proximity assay); type: biochemical; conditions: human platelet PDE3, [3H]cAMP SPA, 30 min at room temperature
T1 construct: Human platelet PDE3 (partially purified from human platelets); from tissue; host or cells: human platelets
T1 sequence (Q14432 whole entry): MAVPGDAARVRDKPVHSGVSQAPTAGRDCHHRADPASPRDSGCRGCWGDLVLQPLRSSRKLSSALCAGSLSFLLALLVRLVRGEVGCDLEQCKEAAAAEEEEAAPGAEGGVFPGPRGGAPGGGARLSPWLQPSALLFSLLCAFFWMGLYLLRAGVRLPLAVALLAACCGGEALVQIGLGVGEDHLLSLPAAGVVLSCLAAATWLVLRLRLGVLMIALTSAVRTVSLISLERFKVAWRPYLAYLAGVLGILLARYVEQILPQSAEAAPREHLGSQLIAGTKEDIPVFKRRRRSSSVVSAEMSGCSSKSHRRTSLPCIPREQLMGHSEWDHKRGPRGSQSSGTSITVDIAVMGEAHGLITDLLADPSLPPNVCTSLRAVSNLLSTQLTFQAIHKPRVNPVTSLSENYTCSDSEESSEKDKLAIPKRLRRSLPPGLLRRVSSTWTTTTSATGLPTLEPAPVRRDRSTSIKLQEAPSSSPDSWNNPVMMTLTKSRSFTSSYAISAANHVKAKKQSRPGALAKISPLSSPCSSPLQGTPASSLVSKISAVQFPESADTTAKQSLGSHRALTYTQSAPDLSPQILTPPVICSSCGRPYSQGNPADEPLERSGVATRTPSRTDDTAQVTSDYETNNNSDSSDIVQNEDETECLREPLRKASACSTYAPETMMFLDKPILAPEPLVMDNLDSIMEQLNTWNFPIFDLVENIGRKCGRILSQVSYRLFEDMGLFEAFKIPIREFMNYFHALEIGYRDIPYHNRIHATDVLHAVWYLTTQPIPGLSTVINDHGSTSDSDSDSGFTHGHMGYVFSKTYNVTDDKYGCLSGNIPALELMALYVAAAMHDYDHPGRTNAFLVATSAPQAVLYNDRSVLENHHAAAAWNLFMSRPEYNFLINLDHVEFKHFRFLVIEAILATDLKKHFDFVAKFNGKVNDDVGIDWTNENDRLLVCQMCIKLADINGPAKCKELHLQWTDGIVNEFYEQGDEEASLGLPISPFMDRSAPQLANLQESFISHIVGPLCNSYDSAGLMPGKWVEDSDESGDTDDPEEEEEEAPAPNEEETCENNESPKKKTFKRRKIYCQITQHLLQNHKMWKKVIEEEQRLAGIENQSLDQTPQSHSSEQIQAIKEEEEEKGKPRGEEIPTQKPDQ

Sequence of c-MET receptor tyrosine kinase, GST-c-MET(969-1390) (P08581 969-1390): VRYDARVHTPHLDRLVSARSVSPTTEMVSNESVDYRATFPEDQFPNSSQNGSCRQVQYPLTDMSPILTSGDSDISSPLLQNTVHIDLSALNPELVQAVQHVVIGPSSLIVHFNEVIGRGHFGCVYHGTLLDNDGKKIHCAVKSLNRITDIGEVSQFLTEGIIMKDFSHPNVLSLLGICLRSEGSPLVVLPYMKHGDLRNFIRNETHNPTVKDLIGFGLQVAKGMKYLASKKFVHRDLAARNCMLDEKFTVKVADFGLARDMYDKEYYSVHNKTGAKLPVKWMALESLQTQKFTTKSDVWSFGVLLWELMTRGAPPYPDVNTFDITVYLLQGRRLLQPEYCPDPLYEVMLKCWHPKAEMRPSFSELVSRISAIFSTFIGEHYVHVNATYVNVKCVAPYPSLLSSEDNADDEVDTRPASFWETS

Row | Structure (SMILES) | IC50 [1] [nM] | IC50 (human platelet PDE3) [nM] | IC50 (GTL16 cells) [nM]
1 | C/C(=N\O)c1ccc2nnc([C@H](C)c3c(F)cc4ncc(C(C)(C)O)cc4c3F)n2n1 [24-(R)] | 146 | 6000 | 126
2 | C/C(=N\O)c1ccc2nnc([C@@H](C)c3c(F)cc4ncc(C(C)(C)O)cc4c3F)n2n1 [24-(S)] | 5 | 8000 | 80
3 | C/C(=N\O)c1ccc2nnc(Cc3ccc4ncc(CN5CCN(C)CC5)cc4c3)n2n1 [Example 16, (E)-1-(3-((3-((4-Methylpiperazin-1-yl)methyl)quinolin-6-yl)methyl)-[1,2,4]triazolo[4,3-b]pyridazin-6-yl)ethanone oxime] | 25 |  | 491
4 | C/C(=N\O)c1ccc2nnc(Sc3ccc4ncc(N5CCN(C)CC5)cc4c3)n2n1 [Example 28, (E)-1-(3-((3-(4-Methylpiperazin-1-yl)quinolin-6-yl)sulfanyl)-[1,2,4]triazolo[4,3-b]pyridazin-6-yl)-ethanone oxime] | 5 | > 30000 | 2
5 | C/C(=N\OCC1CC1)c1ccc2nnc(Cc3ccc4ncc(-c5cnn(C)c5)cc4c3)n2n1 [Example 7, (E)-1-{3-[3-(1-Methyl-1H-pyrazol-4-yl)quinolin-6-ylmethyl]-[1,2,4]triazolo[4,3-b]pyridazin-6-yl}-ethanone O-cyclopropylmethyl-oxime] | 11 |  | 8
6 | C/C(=N\OCC1CC1)c1ccc2nnc(C(C)c3ccc4ncc(CN5CCOCC5)cc4c3)n2n1 (centres unmarked) [Example 9, (E)-1-{3-[1-(3-Morpholin-4-ylmethyl-quinolin-6-yl)-ethyl]-[1,2,4]triazolo[4,3-b]pyridazin-6-yl}-ethanone O-cyclopropylmethyl-oxime] | 86 |  | 311
7 | C/C(=N\O)c1ccc2nnc(C3(c4ccc5ncc(N6CCN(C)CC6)cc5c4)CC3)n2n1 [Example 27] | 31 |  | 240
8 | CCO/N=C(\C)c1ccc2nnc(Cc3ccc4ncc(-c5cnn(C)c5)cc4c3)n2n1 [Example 8, (E)-1-{3-[3-(1-Methyl-1H-pyrazol-4-yl)quinolin-6-ylmethyl]-[1,2,4]triazolo[4,3-b]pyridazin-6-yl}-ethanone O-ethyl-oxime] | 3 |  | 0.3
9 | C/C(=N\O)c1ccc2nnc(Sc3ccc4ncc(N5CCC(N(C)C)C5)cc4c3)n2n1 (centres unmarked) [Example 33, (E)-1-(3-((3-(3-(dimethylamino)pyrrolidin-1-yl)quinolin-6-yl)sulfanyl)-[1,2,4]triazolo[4,3-b]pyridazin-6-yl)ethanone oxime] | 0.9 |  | 1
10 | C/C(=N\OCC1CC1)c1ccc2nnc(C(C)c3ccc4ncc(-c5cnn(C)c5)cc4c3)n2n1 (centres unmarked) [Example 4, (E)-1-(3-{1-[3-(1-Methyl-1H-pyrazol-4-yl)quinolin-6-yl]-ethyl}-[1,2,4]triazolo[4,3-b]pyridazin-6-yl)-ethanone O-cyclopropylmethyl-oxime] | 25 |  | 
11 | C/C(=N\N)c1ccc2nnc(C(C)c3ccc4ncc(-c5cnn(C)c5)cc4c3)n2n1 (centres unmarked) [Example 5] | 5 |  | 1

Continued, in another order:

Row | IC50 [1] [nM] | IC50 (human platelet PDE3) [nM] | Structure (SMILES) | IC50 (GTL16 cells) [nM]
12 | 5 |  | C/C(=N\O)c1ccc2nnc(Cc3ccc4ncc(N5C[C@@H]6C[C@H]5CN6C)cc4c3)n2n1 [Example 19, (E)-1-(3-((3-((1S,4S)-5-Methyl-2,5-diazabicyclo[2.2.1]heptan-2-yl)quinolin-6-yl)methyl)-[1,2,4]triazolo[4,3-b]pyridazin-6-yl)ethanone oxime] | 12
13 | 3 | > 30000 | C/C(=N\O)c1ccc2nnc(Sc3ccc4ncc(CN5CCOCC5)cc4c3)n2n1 [Example 31, (E)-1-(3-((3-(Morpholin-4-yl-methyl)quinolin-6-yl)sulfanyl)-[1,2,4]triazolo[4,3-b]pyridazin-6-yl)-ethanone oxime] | 23
14 | 5 |  | C/C(=N\O)c1ccc2nnc(C(C)c3ccc4ncc(-c5cnn(C)c5)cc4c3)n2n1 (centres unmarked) [Example 1, (E)-1-(3-{1-[3-(1-Methyl-1H-pyrazol-4-yl)quinolin-6-yl]-ethyl}-[1,2,4]triazolo[4,3-b]pyridazin-6-yl)-ethanone oxime] | 9
15 | 4 |  | C/C(=N\O)c1ccc2nnc(Sc3ccc4ncc(N5CCOCC5)cc4c3)n2n1 [Example 10, (E)-1-[3-(3-Morpholin-4-yl-quinolin-6-ylsulfanyl)-[1,2,4]triazolo[4,3-b]pyridazin-6-yl]-ethanone oxime] | 1
16 | 1 | 21000 | C/C(=N\O)c1ccc2nnc(Cc3c(F)cc4ncc(-c5cnn(C)c5)cc4c3F)n2n1 [Example 22, (E)-1-(3-((5,7-Difluoro-3-(1-methyl-1H-pyrazol-4-yl)quinolin-6-yl)methyl)-[1,2,4]triazolo[4,3-b]pyridazin-6-yl)ethanone oxime] | 3
17 | 7 | > 30000 | C/C(=N\O)c1ccc2nnc(Cc3ccc4ncc(CN5CCOCC5)cc4c3)n2n1 [Example 15, (E)-1-(3-((3-(Morpholin-4-yl-methyl)quinolin-6-yl)methyl)-[1,2,4]triazolo[4,3-b]pyridazin-6-yl)ethanone oxime] | 13
18 | 3 |  | C/C(=N\O)c1ccc2nnc(Cc3c(F)cc4ncc(CN5CCOCC5)cc4c3F)n2n1 [Example 17, (E)-1-(3-((5,7-Difluoro-3-(morpholin-4-yl-methyl)quinolin-6-yl)methyl)-[1,2,4]triazolo[4,3-b]pyridazin-6-yl)ethanone oxime] | 10
19 | 8 |  | C/C(=N\O)c1ccc2nnc(Cc3c(F)cc4ncc(-c5c(C)noc5C)cc4c3F)n2n1 [Example 23, (E)-1-(3-((3-(3,5-Dimethylisoxazol-4-yl)-5,7-difluoroquinolin-6-yl)methyl)-[1,2,4]triazolo[4,3-b]pyridazin-6-yl)ethanone oxime] | 11
20 | 4 |  | CO/N=C(\C)c1ccc2nnc(Cc3ccc4ncc(-c5cnn(C)c5)cc4c3)n2n1 [Example 6, (E)-1-{3-[3-(1-Methyl-1H-pyrazol-4-yl)quinolin-6-ylmethyl]-[1,2,4]triazolo[4,3-b]pyridazin-6-yl}-ethanone O-methyl-oxime] | 0.5
21 | 6 |  | CCO/N=C(\C)c1ccc2nnc(C(C)c3ccc4ncc(-c5cnn(C)c5)cc4c3)n2n1 (centres unmarked) [Example 2, (E)-1-(3-{1-[3-(1-Methyl-1H-pyrazol-4-yl)quinolin-6-yl]-ethyl}-[1,2,4]triazolo[4,3-b]pyridazin-6-yl)-ethanone O-ethyl-oxime] | 2
22 | 207 |  | C/C(=N\O)c1ccc2nnc(Cc3ccc4ncc(CN5CCCCC5)cc4c3)n2n1 [Example 18, (E)-1-(3-((3-(Piperidin-1-ylmethyl)quinolin-6-yl)methyl)-[1,2,4]triazolo[4,3-b]pyridazin-6-yl)ethanone oxime] | 317
23 | 4 |  | C/C(=N\O)c1ccc2nnc(Cc3ccc4ncc(N5CCC(O)CC5)cc4c3)n2n1 [Example 20, (E)-1-(3-((3-(4-Hydroxypiperidin-1-yl)quinolin-6-yl)methyl)-[1,2,4]triazolo[4,3-b]pyridazin-6-yl)ethanone oxime] | 17
24 | 2 |  | C/C(=N\O)c1ccc2nnc(Cc3ccc4ncc(NC5CCOCC5)cc4c3)n2n1 [Example 34, (E)-1-{3-[3-(Tetrahydro-pyran-4-ylamino)-quinolin-6-ylmethyl]-[1,2,4]triazolo[4,3-b]pyridazin-6-yl}-ethanone oxime] | 10
